The structures appear in SMILES notation.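 Exposure lasted 48 hours, with cells grown in 96-well plates and compounds tested at five concentrations. GI50 = concentration required for 50% inhibition of growth.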 Activity calls are given as the source filed them. Rule as the data show it: active = GI50 up to about 1.1 µM and inactive = higher. Some results are limits rather than exact numbers.

What all share (assay): DTP human tumour cell line panel, 48 h
Experiment [1] deals with RXF 393.
Experiment [2] relates to Hs-578T.
Experiment [3] concerns MCF7.
Experiment [4] has as its system LOX IMVI.
For experiment [5], the system named is SK-MEL-5.
Experiment [6] has as its system UACC-257.
The subject of experiment [7] is MDA-MB-231.
Experiment [8] deals with SK-MEL-28.
Experiment [9] relates to SNB-19.
Experiment [10] relates to TK-10.
Experiment [11] deals with ACHN.
Experiment [12] has as its system OVCAR-5.
Experiment [13] has as its system K562.
Experiment [14] deals with SW-620.
Experiment [15] has as its system MDA-MB-435.
Experiment [16] deals with OVCAR-8.
The subject of experiment [17] is KM12.
In experiment [18] the test system is SK-MEL-2.
For experiment [19], the system named is DU-145.
The test system of experiment [20] is NCI-H226.

Broadly, the GI50 is the concentration that inhibits growth by half. In the case of `CO/C(N)=C(C#N)/N=C/c1ccccc1`, the GI50 in experiment [1] is > 100 µM (inactive); in experiment [2] it was > 100 µM (inactive); in experiment [3] it was 31.8 µM (inactive); in experiment [4], > 100 µM (inactive); in experiment [5], > 100 µM (inactive); in experiment [6], > 100 µM (inactive). Further, the GI50 is > 100 µM (inactive) in experiment [7]; > 100 µM (inactive) in experiment [8]; 66.2 µM (inactive) in experiment [9]; > 100 µM (inactive) in experiment [10]; > 100 µM (inactive) in [11]; > 100 µM (inactive) in [12]. Further, the GI50 in experiment [13] was 58.6 µM (inactive); in experiment [14] it was > 100 µM (inactive); in experiment [15], > 100 µM (inactive); in experiment [16], > 100 µM (inactive); in [17], > 100 µM (inactive); in experiment [18] it was > 100 µM (inactive). Besides, the GI50 in experiment [19] and in experiment [20] was > 100 µM (inactive) throughout.

For `CC1(C)OC(=S)N(c2ccccc2)C12C=Cc1ccccc1O2` (stereo not given), the GI50 in [1] was > 100 µM (inactive); in experiment [2], > 100 µM (inactive); in experiment [3] it was 61.1 µM (inactive); in experiment [4], > 100 µM (inactive); in experiment [5], 56.5 µM (inactive); in [6], 42.1 µM (inactive). In addition, the GI50 in experiment [7], in experiment [8], in experiment [9], in experiment [10], in [11] and in experiment [12] was > 100 µM (inactive) throughout. Moreover, the GI50 in experiment [13] was 29.1 µM (inactive); in experiment [14] it was 72.3 µM (inactive); in experiment [15], 36.4 µM (inactive); in [16], > 100 µM (inactive); in experiment [17], 35 µM (inactive); in experiment [18] it was > 100 µM (inactive). In addition, the figures for the GI50 in [19] and in experiment [20] were > 100 µM (inactive) and 85.3 µM (inactive), respectively.

Consider `CC(CO)(Nc1ccc([N+](=O)[O-])cc1[N+](=O)[O-])C(=O)O` (stereo not given), for which the GI50 in experiment [1] was 12.2 µM (inactive); in [2], 17.3 µM (inactive); in experiment [3] it was 17.5 µM (inactive); in [4], 22.5 µM (inactive); in experiment [5], 20.5 µM (inactive); in experiment [6] it was 24.9 µM (inactive). Moreover, the GI50 is 79.8 µM (inactive) in experiment [7]; 22.1 µM (inactive) in experiment [8]; 43 µM (inactive) in experiment [9]; 36.1 µM (inactive) in experiment [10]; 18.7 µM (inactive) in experiment [11]; 32.6 µM (inactive) in experiment [12]. For the same compound, the GI50 is 19.1 µM (inactive) in experiment [13]; 16.7 µM (inactive) in [14]; 21.6 µM (inactive) in [15]; 34.8 µM (inactive) in experiment [16]; 43.5 µM (inactive) in experiment [17]; 20.7 µM (inactive) in experiment [18]. In addition, the results for the GI50 in [19] and in [20] were 22.8 µM (inactive) and > 100 µM (inactive), respectively.

With `Nc1nc(Cl)cc(NCC2(CO)CC(Cc3ccccc3)C2)n1` (stereo not given), the GI50 was 20.4 µM (inactive) in experiment [1]; 38.7 µM (inactive) in experiment [2]; 11.2 µM (inactive) in [3]; 4.37 µM (inactive) in experiment [4]; 0.417 µM (active) in experiment [5]; 31.5 µM (inactive) in experiment [6]. For the same compound, the GI50 in [7] is 42.3 µM (inactive); in experiment [8], 60.4 µM (inactive); in experiment [9], 25.5 µM (inactive); in [10], 25.6 µM (inactive); in experiment [11], 32 µM (inactive); in [12], > 58.7 µM (inactive). In addition, the GI50 was 2.92 µM (inactive) in [13]; > 65.6 µM (inactive) in experiment [14]; 19.4 µM (inactive) in experiment [15]; 42.2 µM (inactive) in experiment [16]; 35.1 µM (inactive) in [17]; 22.3 µM (inactive) in experiment [18]. For the same compound, the values for the GI50 in [19] and in experiment [20] were > 53.5 µM (inactive) and 13.2 µM (inactive), respectively.

With `O=C1/C(=N\NC(=S)NC2CCCCC2)c2cc([N+](=O)[O-])ccc2N1CN1CCOCC1`, the GI50 in [1] was 12.4 µM (inactive); in experiment [2], 15 µM (inactive); in [3], 4.06 µM (inactive); in experiment [4], 5.04 µM (inactive); in [5] it was 3.16 µM (inactive); in experiment [6], 10.5 µM (inactive). Besides, the GI50 in experiment [7] was 15.8 µM (inactive); in [8], 10.9 µM (inactive); in [9] it was 7.87 µM (inactive); in [10], 6.76 µM (inactive); in experiment [11], 5.11 µM (inactive); in experiment [12], 11.3 µM (inactive). Also, the GI50 in experiment [13] was 3.61 µM (inactive); in experiment [14], 6.25 µM (inactive); in experiment [15], 6.79 µM (inactive); in experiment [16] it was 3.9 µM (inactive); in experiment [17], 4.81 µM (inactive); in experiment [18], 11.7 µM (inactive). The GI50 is 11 µM (inactive) in experiment [19] and 19.1 µM (inactive) in experiment [20].

Regarding `Cc1ccc(/C=C2\CN(C)CC3=C2N=C(S)NC3c2ccc(C)cc2)cc1` (stereo not given), the GI50 was 31.6 µM (inactive) in experiment [1]; > 100 µM (inactive) in experiment [2]; 24.7 µM (inactive) in experiment [3]; 30.3 µM (inactive) in experiment [4]; 25.7 µM (inactive) in [5]; 7 µM (inactive) in experiment [6]. For the same compound, the GI50 in [7] was 34.8 µM (inactive); in experiment [8] it was > 100 µM (inactive); in [9] it was 73.5 µM (inactive); in [10] it was 0.341 µM (active); in [11], 40.7 µM (inactive); in experiment [12] it was > 100 µM (inactive). The GI50 was 23.3 µM (inactive) in [13]; 61.2 µM (inactive) in experiment [14]; 8.63 µM (inactive) in experiment [15]; 25.5 µM (inactive) in experiment [16]; 15.4 µM (inactive) in experiment [17]; 51.3 µM (inactive) in [18]. The GI50 is 34.4 µM (inactive) in experiment [19] and 27.8 µM (inactive) in [20].

For the compound `C=CCC(CC=O)(C(=O)OCC)C(=O)OCC`, the GI50 in experiment [1], in [2], in experiment [3], in experiment [4], in experiment [5] and in [6] was > 100 µM (inactive) in each case. The GI50 in experiment [7], in [8], in [9], in experiment [10], in [11] and in experiment [12] was > 100 µM (inactive) each time. In addition, the GI50 in experiment [13], in [14], in [15], in experiment [16], in experiment [17] and in experiment [18] was > 100 µM (inactive) in each case. The GI50 in experiment [19] and in experiment [20] was > 100 µM (inactive) in each case.

With `CN(C)CCCNc1ccnc2cccc([N+](=O)[O-])c12`, the GI50 in [1] was 25.5 µM (inactive); in experiment [2] it was 26 µM (inactive); in experiment [3] it was 10.7 µM (inactive); in experiment [4] it was 13.6 µM (inactive); in experiment [5] it was 10.4 µM (inactive); in experiment [6], 19.1 µM (inactive). The GI50 in experiment [7] is 17.7 µM (inactive); in experiment [8], 14.3 µM (inactive); in [9] it was 19.6 µM (inactive); in experiment [10] it was 15.7 µM (inactive); in experiment [11], 5 µM (inactive); in experiment [12] it was 23 µM (inactive). The GI50 in [13] was 29.4 µM (inactive); in experiment [14], 17.2 µM (inactive); in experiment [15] it was 15.3 µM (inactive); in experiment [16], 22 µM (inactive); in [17], 12.8 µM (inactive); in [18] it was 17.2 µM (inactive). For the same compound, the GI50 is 29 µM (inactive) in [19] and 15.3 µM (inactive) in [20].

In the case of `COc1cc(CCNC2=CC(=O)c3cccnc3C2=O)ccc1O`, the GI50 in experiment [1] is 0.955 µM (active); in experiment [2], 0.849 µM (active); in experiment [3], 0.16 µM (active); in [4], 0.284 µM (active); in experiment [5], 0.385 µM (active); in experiment [6] it was 0.869 µM (active). Moreover, the GI50 is 0.736 µM (active) in experiment [7]; 1.22 µM (inactive) in experiment [8]; 1.61 µM (inactive) in [9]; 7.96 µM (inactive) in experiment [10]; 1.31 µM (inactive) in experiment [11]; 1.63 µM (inactive) in experiment [12]. For the same compound, the GI50 in experiment [13] was 0.483 µM (active); in [14] it was 1.4 µM (inactive); in experiment [15], 0.173 µM (active); in [16], 2.26 µM (inactive); in [17], 1.95 µM (inactive); in experiment [18], 1.35 µM (inactive). The GI50 was 1.72 µM (inactive) in experiment [19] and 1.84 µM (inactive) in [20].

Take `O=C1/C(=C/c2ccccc2)CCC/C1=C\c1ccc(O)c(CN2CCCCC2)c1`: the GI50 in experiment [1] was 13.8 µM (inactive); in experiment [2], 3.93 µM (inactive); in experiment [3], 4.32 µM (inactive); in experiment [4], 1.99 µM (inactive); in [5], 2.92 µM (inactive); in [6], 5.53 µM (inactive). Further, the GI50 in experiment [7] is 2.77 µM (inactive); in [8], 6.92 µM (inactive); in [9], 9.35 µM (inactive); in [10], 15.2 µM (inactive); in [11], 1.81 µM (inactive); in experiment [12], 15.3 µM (inactive). Besides, the GI50 in experiment [13] was 3.27 µM (inactive); in experiment [14], 2.39 µM (inactive); in experiment [15], 2.55 µM (inactive); in experiment [16] it was 3.78 µM (inactive); in experiment [17], 0.933 µM (active); in [18], 11.9 µM (inactive). For the same compound, the GI50 in [19] was 2.62 µM (inactive); in experiment [20], 6.41 µM (inactive).

(Values after ChEMBL document CHEMBL1201862, “PubChem BioAssay data set” (2004).)
